Source: publication PMC8693618 (Bioorganic & medicinal chemistry, 2021)
Where two headings read alike, the source gives them in different places.

Tests used:
[1] = PAMPA passive permeability; format: in vitro ADME
[2] = molecular target: human PANK3 (Homo sapiens, UniProt Q9H999); conditions: tested up to 10 μM
[3] = passive permeability; previously determined ref 8; cited from earlier work
[4] = test system: Caco2; conditions: previously determined ref 8; cited from earlier work
[5] = test system: Plasma Protein; conditions: mouse; previously determined ref 8; cited from earlier work
[6] = test system: Plasma Protein; conditions: rat; previously determined ref 8; cited from earlier work
[7] = test system: Plasma Protein; conditions: human; previously determined ref 8; cited from earlier work
[8] = mouse, rat, and human plasma; previously determined ref 8; cited from earlier work

Chain of human PANK3 (Q9H999 whole entry): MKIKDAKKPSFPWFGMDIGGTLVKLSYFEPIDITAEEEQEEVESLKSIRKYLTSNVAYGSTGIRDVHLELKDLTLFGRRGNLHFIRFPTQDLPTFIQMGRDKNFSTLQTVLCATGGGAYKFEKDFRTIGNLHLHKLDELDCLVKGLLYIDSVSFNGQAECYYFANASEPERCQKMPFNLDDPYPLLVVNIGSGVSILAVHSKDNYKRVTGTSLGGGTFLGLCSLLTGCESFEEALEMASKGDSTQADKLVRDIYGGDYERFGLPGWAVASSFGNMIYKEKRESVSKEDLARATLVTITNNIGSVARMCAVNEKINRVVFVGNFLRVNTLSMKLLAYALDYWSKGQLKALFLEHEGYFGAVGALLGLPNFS

Q: Which PAMPA [1] does the source give for CC(C)(C)c1ccc(NC(=O)N2CCN(c3ccc(C#N)cn3)CC2)cc1 [Compound 1, N-(4-(tert-butyl)phenyl)-4-(5-cyanopyridin-2-yl) piperazine-1-carboxamide] here?
A: 1232 1 × 10^−6 cm/s

Q: Which “PANK3 inhibitory activity in words” value [2] does the source give for CCc1ccc(NC(=O)N2CCN(c3ccc(C#N)cn3)CC2)cc1 [Compound 3, 4-(5-cyanopyridin-2-yl)-N-(4-ethylphenyl)piperazine-1-carboxamide] here?
A: did not show activity

Q: Which “PANK3 inhibitory activity in words” value [2] does the source give for CCCCc1ccc(NC(=O)N2CCN(c3ccc(C#N)cn3)CC2)cc1 [Compound 8, N-(4-butylphenyl)-4-(5-cyanopyridin-2-yl)piperazine-1-carboxamide] here?
A: did not show activity

Q: For N#Cc1ccc(N2CCN(C(=O)Nc3ccc(Br)cc3)CC2)nc1 [Compound 14, N-(4-bromophenyl)-4-(5-cyanopyridin-2-yl)piperazine-1-carboxamide], which “PANK3 inhibitory activity in words” value [2] is on record?
A: inactive

Q: For N#Cc1ccc(N2CCN(C(=O)Nc3ccc(C(F)(F)F)cc3)CC2)nc1 [Compound 18, 4-(5-cyanopyridin-2-yl)-N-(4-(trifluoromethyl)phenyl)piperazine-1-carboxamide], which “PANK3 inhibitory activity in words” value [2] is on record?
A: inactive

Q: With CC(C)c1ccc(C(=O)N2CCN(c3ccc(C#N)cn3)CC2)cc1 [Compound 28, 6-(4-(4-isopropylbenzoyl)piperazin-1-yl) nicotinonitrile] as the compound, how does the “PANK3 inhibitory activity in words” value [2] read?
A: complete loss of activity

Q: Which “PANK3 inhibitory activity in words” value [2] does the source give for CC(C)c1ccc(C(=O)CN2CCN(c3ccc(C#N)cn3)CC2)cc1 [Compound 32, 6-(4-(2-(4-isopropylphenyl)-2-oxoethyl)piperazin-1-yl)nicotinonitrile] here?
A: loss of activity

Q: Which PAMPA [1] does the source give for CC(C)c1ccc(NC(=O)N2CCN(c3ccc(C#N)nn3)CC2)cc1 [Compound 56, 4-(6-cyanopyridazin-3-yl)-N-(4-isopropylphenyl) piperazine-1-carboxamide] here?
A: 316 1 × 10^−6 cm/s

Q: With CC(C)c1ccc(CC(=O)N2CCN(c3ccc(C#N)nn3)CC2)cc1 [Compound 57, 6-(4-(2-(4-isopropylphenyl)acetyl)piperazin-1-yl) pyridazine-3-carbonitrile] as the compound, how does the PAMPA [3] read?
A: 413 1 × 10^−6 cm/s

Q: What about the “Caco2 Permeability A/B” value [4] of the same compound?
A: 30.2 ×10⁻⁶ cm/s

Q: And the “Plasma Protein Binding” value [5]?
A: 92%

Q: And the “Plasma Protein Binding” value [6]?
A: 91%

Q: And the “Plasma Protein Binding” value [7]?
A: 93%

Q: What about the “Plasma Stability T1/2” value [8] of the same compound?
A: >48 h
